Test: Safety: adverse events (NCI CTCAE v5.0), electrocardiograms
Assay type: in vivo, human
Settings: phase 1a; for TEAE Neutropenia, Toxicity Grade All: includes neutropenia and neutrophil count decreased
Method: Safety assessments included the monitoring of AEs, clinical laboratory parameters, electrocardiograms, and vital signs. AE severity was graded according to the National Cancer Institute Common Terminology Criteria for Adverse Events (version 5.0).
All DLT analyses (phase 1a) were performed in patients enrolled in the study during cycle 1 and who either received 75% of the planned palazestrant doses or experienced a DLT during cycle 1. All PK analyses were performed in patients who received at least 1 dose of palazestrant and had adequate postbaseline PK samples for characterization of PK parameters. All safety analyses were performed and PFS assessed in patients who received at least 1 dose of palazestrant. Clinical response (CR or PR) was assessed in patients who received at least 1 cycle of palazestrant, had measurable disease at baseline, and had at least 1 postbaseline tumor assessment. CBR was assessed in patients who received at least 1 cycle of palazestrant, had at least 1 postbaseline tumor assessment, and started their first dose at least 24 weeks before data cutoff. Patients who discontinued study treatment without radiographic progression within 24 weeks from the first dose were not included in the CBR analysis. PK parameters were estimated using conventional noncompartmental methods. For CBR, estimates were accompanied by 2-sided 95% confidence intervals (95% CIs). For PFS, Kaplan–Meier analyses were used to determine medians, event-free rates, and 95% CIs. For all other outcomes, categorical data were analyzed using frequencies and percentages, and continuous data were analyzed using means (standard deviation) or medians (range), as appropriate.

## CCCN1CC(Oc2ccc([C@@H]3c4[nH]c5ccccc5c4C[C@@H](C)N3CC(C)(C)F)cc2)C1 [palazestrant, Palazestrant]
60 mg (N=6)
  TEAE Vomiting, Toxicity Grade G3: 0
  TEAE Vomiting, Toxicity Grade G4: 0
  TEAE Neutropenia, Toxicity Grade All: 1 (16.7)
90 mg (N=6)
  TEAE Constipation, Toxicity Grade All: 1 (16.7)
  TEAE Constipation, Toxicity Grade G3: 0
  TEAE Constipation, Toxicity Grade G4: 0
  TEAE Decreased appetite, Toxicity Grade All: 1 (16.7)
  TEAE Decreased appetite, Toxicity Grade G3: 0
  TEAE Decreased appetite, Toxicity Grade G4: 0
  TEAE Diarrhea, Toxicity Grade All: 0
  TEAE Diarrhea, Toxicity Grade G3: 0
  TEAE Diarrhea, Toxicity Grade G4: 0
  TEAE Fatigue, Toxicity Grade All: 0
  TEAE Fatigue, Toxicity Grade G3: 0
  TEAE Fatigue, Toxicity Grade G4: 0
  TEAE Headache, Toxicity Grade All: 1 (16.7)
  TEAE Headache, Toxicity Grade G3: 0
  TEAE Headache, Toxicity Grade G4: 0
  TEAE Maculopapular rash, Toxicity Grade All: 0
  TEAE Maculopapular rash, Toxicity Grade G3: 0
  TEAE Maculopapular rash, Toxicity Grade G4: 0
  TEAE Nausea, Toxicity Grade All: 2 (33.3)
  TEAE Nausea, Toxicity Grade G3: 0
  TEAE Nausea, Toxicity Grade G4: 0
  TEAE Neutropenia, Toxicity Grade G3: 0
  TEAE Neutropenia, Toxicity Grade G4: 0
  TEAE Vomiting, Toxicity Grade All: 1 (16.7)
  TEAE Vomiting, Toxicity Grade G3: 0
  TEAE Vomiting, Toxicity Grade G4: 0
  TEAE Neutropenia, Toxicity Grade All: 0
120 mg (N=6)
  TEAE Constipation, Toxicity Grade All: 0
  TEAE Constipation, Toxicity Grade G3: 0
  TEAE Constipation, Toxicity Grade G4: 0
  TEAE Decreased appetite, Toxicity Grade All: 1 (16.7)
  TEAE Decreased appetite, Toxicity Grade G3: 0
  TEAE Decreased appetite, Toxicity Grade G4: 0
  TEAE Diarrhea, Toxicity Grade All: 1 (16.7)
  TEAE Diarrhea, Toxicity Grade G3: 0
  TEAE Diarrhea, Toxicity Grade G4: 0
  TEAE Fatigue, Toxicity Grade All: 2 (33.3)
  TEAE Fatigue, Toxicity Grade G3: 0
  TEAE Fatigue, Toxicity Grade G4: 0
  TEAE Headache, Toxicity Grade All: 1 (16.7)
  TEAE Headache, Toxicity Grade G3: 0
  TEAE Headache, Toxicity Grade G4: 0
  TEAE Maculopapular rash, Toxicity Grade All: 1 (16.7)
  TEAE Maculopapular rash, Toxicity Grade G3: 0
  TEAE Maculopapular rash, Toxicity Grade G4: 0
  TEAE Nausea, Toxicity Grade All: 5 (83.3)
  TEAE Nausea, Toxicity Grade G3: 0
  TEAE Nausea, Toxicity Grade G4: 0
  TEAE Neutropenia, Toxicity Grade G3: 0
  TEAE Neutropenia, Toxicity Grade G4: 1 (16.7)
  TEAE Vomiting, Toxicity Grade All: 2 (33.3)
  TEAE Vomiting, Toxicity Grade G3: 1 (16.7)
  TEAE Vomiting, Toxicity Grade G4: 0
  TEAE Neutropenia, Toxicity Grade All: 2 (33.3)
150 mg (N=5)
  TEAE Constipation, Toxicity Grade All: 0
  TEAE Constipation, Toxicity Grade G3: 0
  TEAE Constipation, Toxicity Grade G4: 0
  TEAE Decreased appetite, Toxicity Grade All: 1 (20.0)
  TEAE Decreased appetite, Toxicity Grade G3: 0
  TEAE Decreased appetite, Toxicity Grade G4: 0
  TEAE Diarrhea, Toxicity Grade All: 1 (20.0)
  TEAE Diarrhea, Toxicity Grade G3: 0
  TEAE Diarrhea, Toxicity Grade G4: 0
  TEAE Fatigue, Toxicity Grade All: 1 (20.0)
  TEAE Fatigue, Toxicity Grade G3: 1 (20.0)
  TEAE Fatigue, Toxicity Grade G4: 0
  TEAE Headache, Toxicity Grade All: 1 (20.0)
  TEAE Headache, Toxicity Grade G3: 0
  TEAE Headache, Toxicity Grade G4: 0
  TEAE Maculopapular rash, Toxicity Grade All: 0
  TEAE Maculopapular rash, Toxicity Grade G3: 0
  TEAE Maculopapular rash, Toxicity Grade G4: 0
  TEAE Nausea, Toxicity Grade All: 4 (80.0)
  TEAE Nausea, Toxicity Grade G3: 1 (20.0)
  TEAE Nausea, Toxicity Grade G4: 0
  TEAE Neutropenia, Toxicity Grade G3: 0
  TEAE Neutropenia, Toxicity Grade G4: 1 (20.0)
  TEAE Vomiting, Toxicity Grade All: 2 (40.0)
  TEAE Vomiting, Toxicity Grade G3: 0
  TEAE Vomiting, Toxicity Grade G4: 0
  TEAE Neutropenia, Toxicity Grade All: 2 (40.0)
210 mg (N=7)
  TEAE Constipation, Toxicity Grade All: 4 (57.1)
  TEAE Constipation, Toxicity Grade G3: 0
  TEAE Constipation, Toxicity Grade G4: 0
  TEAE Decreased appetite, Toxicity Grade All: 3 (42.9)
  TEAE Decreased appetite, Toxicity Grade G3: 0
  TEAE Decreased appetite, Toxicity Grade G4: 0
  TEAE Diarrhea, Toxicity Grade All: 0
  TEAE Diarrhea, Toxicity Grade G3: 0
  TEAE Diarrhea, Toxicity Grade G4: 0
  TEAE Fatigue, Toxicity Grade All: 2 (28.6)
  TEAE Fatigue, Toxicity Grade G3: 0
  TEAE Fatigue, Toxicity Grade G4: 0
  TEAE Headache, Toxicity Grade All: 0
  TEAE Headache, Toxicity Grade G3: 0
  TEAE Headache, Toxicity Grade G4: 0
  TEAE Maculopapular rash, Toxicity Grade All: 2 (28.6)
  TEAE Maculopapular rash, Toxicity Grade G3: 0
  TEAE Maculopapular rash, Toxicity Grade G4: 0
  TEAE Nausea, Toxicity Grade All: 4 (57.1)
  TEAE Nausea, Toxicity Grade G3: 0
  TEAE Nausea, Toxicity Grade G4: 0
  TEAE Neutropenia, Toxicity Grade G3: 0
  TEAE Neutropenia, Toxicity Grade G4: 0
  TEAE Vomiting, Toxicity Grade All: 1 (14.3)
  TEAE Vomiting, Toxicity Grade G3: 0
  TEAE Vomiting, Toxicity Grade G4: 0
  TEAE Neutropenia, Toxicity Grade All: 1 (14.3)
300 mg (N=7)
  TEAE Constipation, Toxicity Grade All: 3 (42.9)
  TEAE Constipation, Toxicity Grade G3: 0
  TEAE Constipation, Toxicity Grade G4: 0
  TEAE Decreased appetite, Toxicity Grade All: 3 (42.9)
  TEAE Decreased appetite, Toxicity Grade G3: 0
  TEAE Decreased appetite, Toxicity Grade G4: 0
  TEAE Diarrhea, Toxicity Grade All: 1 (14.3)
  TEAE Diarrhea, Toxicity Grade G3: 0
  TEAE Diarrhea, Toxicity Grade G4: 0
  TEAE Fatigue, Toxicity Grade All: 4 (57.1)
  TEAE Fatigue, Toxicity Grade G3: 0
  TEAE Fatigue, Toxicity Grade G4: 0
  TEAE Headache, Toxicity Grade All: 4 (57.1)
  TEAE Headache, Toxicity Grade G3: 0
  TEAE Headache, Toxicity Grade G4: 0
  TEAE Maculopapular rash, Toxicity Grade All: 2 (28.6)
  TEAE Maculopapular rash, Toxicity Grade G3: 0
  TEAE Maculopapular rash, Toxicity Grade G4: 0
  TEAE Nausea, Toxicity Grade All: 6 (85.7)
  TEAE Nausea, Toxicity Grade G3: 1 (14.3)
  TEAE Nausea, Toxicity Grade G4: 0
  TEAE Neutropenia, Toxicity Grade G3: 0
  TEAE Neutropenia, Toxicity Grade G4: 1 (14.3)
  TEAE Vomiting, Toxicity Grade All: 5 (71.4)
  TEAE Vomiting, Toxicity Grade G3: 0
  TEAE Vomiting, Toxicity Grade G4: 0
  TEAE Neutropenia, Toxicity Grade All: 3 (42.9)
Total (N=42)
  TEAE Constipation, Toxicity Grade All: 10 (23.8)
  TEAE Constipation, Toxicity Grade G3: 0
  TEAE Constipation, Toxicity Grade G4: 0
  TEAE Decreased appetite, Toxicity Grade All: 10 (23.8)
  TEAE Decreased appetite, Toxicity Grade G3: 0
  TEAE Decreased appetite, Toxicity Grade G4: 0
  TEAE Diarrhea, Toxicity Grade All: 7 (16.7)
  TEAE Diarrhea, Toxicity Grade G3: 0
  TEAE Diarrhea, Toxicity Grade G4: 0
  TEAE Fatigue, Toxicity Grade All: 14 (33.3)
  TEAE Fatigue, Toxicity Grade G3: 1 (2.4)
  TEAE Fatigue, Toxicity Grade G4: 0
  TEAE Headache, Toxicity Grade All: 9 (21.4)
  TEAE Headache, Toxicity Grade G3: 0
  TEAE Headache, Toxicity Grade G4: 0
  TEAE Maculopapular rash, Toxicity Grade All: 7 (16.7)
  TEAE Maculopapular rash, Toxicity Grade G3: 0
  TEAE Maculopapular rash, Toxicity Grade G4: 0
  TEAE Nausea, Toxicity Grade All: 25 (59.5)
  TEAE Nausea, Toxicity Grade G3: 2 (4.8)
  TEAE Nausea, Toxicity Grade G4: 0
  TEAE Neutropenia, Toxicity Grade G3: 0
  TEAE Neutropenia, Toxicity Grade G4: 4 (9.5)
  TEAE Vomiting, Toxicity Grade All: 13 (31.0)
  TEAE Vomiting, Toxicity Grade G3: 1 (2.4)
  TEAE Vomiting, Toxicity Grade G4: 0
  TEAE Neutropenia, Toxicity Grade All: 10 (23.8)
